Experimental data: paper PMC6572376, “N1-Propargylguanosine Modified mRNA Cap Analogs: Synthesis, Reactivity, and Applications to the Study of Cap-Binding Proteins” (Molecules, 2019)

Molecular target: T1, hDcpS (Homo sapiens, UniProt Q96C86)
T1 construct: made in house
T1 sequence (Q96C86 1-337): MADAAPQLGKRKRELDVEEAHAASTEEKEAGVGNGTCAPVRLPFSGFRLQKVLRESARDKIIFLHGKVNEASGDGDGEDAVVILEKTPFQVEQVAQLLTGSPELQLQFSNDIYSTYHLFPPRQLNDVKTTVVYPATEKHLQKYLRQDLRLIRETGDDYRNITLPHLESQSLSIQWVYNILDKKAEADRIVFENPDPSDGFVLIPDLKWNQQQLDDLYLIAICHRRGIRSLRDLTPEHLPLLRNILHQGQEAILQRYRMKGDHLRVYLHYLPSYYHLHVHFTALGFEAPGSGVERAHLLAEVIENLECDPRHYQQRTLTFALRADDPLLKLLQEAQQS
Test: hDcpS cleavage of fluorescent probes monitored by emission spectroscopy
Assay type: biochemical
Settings: 30 nM hDcpS; probe 30 µM / 100 nM (legend, methods)
Protocol: Fluorescently labeled cap analogs that serve as DcpS substrates can be considered as activity probes. We performed an enzymatic cleavage test with 30 nM hDcpS and 30 µM probe to evaluate whether fluorescently labeled derivatives of cap analog 1 (probes 6–9) can be used to monitor enzymatic activity via changes in fluorescence emission. […] For the Py-labeled probe 9, the fluorescence intensity at the emission maximum increased by 50% after complete DcpS cleavage (Figure 4c and Figure S3). Nevertheless, certain previously developed probes provided higher sensitivity than the one formulated here.
Human DcpS was expressed and purified as described previously. Enzyme was stored at −80 °C at 10 µM concentration (monomer). Enzyme hDcpS was preincubated at 30 °C for 15 min before usage. […] Reaction progress was monitored by recording emission spectra, upon excitation at the wavelength characteristic for a fluorophore studied, using Cary Eclipse (Agilent Technologies, Santa Clara, CA, USA) equipped with a xenon lamp in a quartz cuvette (10 mm × 4 mm).
Figure 4 The influence of complete cleavage by hDcpS (30 nM) on the fluorescence properties of probes 6–9 (100 nM). Emission spectra before (0 min) and after (60 min) decapping scavenger (DcpS) cleavage for compounds 6 (a) and 9 (b); (c) The ratios of fluorescence intensity after and before cleavage (I/I0) for all studied probes.

Structure (SMILES): C[n+]1cn([C@@H]2O[C@H](COP(=O)(O)OP(=O)([O-])OP(=O)(O)OC[C@H]3O[C@@H](n4cnc5c(=O)n(Cc6cn(CCOCCOCCNC(=O)Cc7ccc8ccc9cccc%10ccc7c8c9%10)nn6)c(N)nc54)[C@H](O)[C@@H]3O)[C@@H](O)[C@H]2O)c2nc(N)nc(O)c21 [Compound 9, m^7Gp3G-N1-Py]
- Increase of fluorescence intensity at the emission maximum after complete DcpS cleavage: 50%
